# Experimental data from publication PMC6204718, “GCDB: a glaucomatous chemogenomics database for in silico drug discovery” (Database: The Journal of Biological Databases and Curation, 2018).
# pIC50: −log10 of the molar value. Like-named read-outs stand apart in the source and are kept apart here.
# Experiments:
# human A3AR = target: T1, human A3AR (Homo sapiens, UniProt P0DMS8); test: A3AR cell-based functional assay (A3AR-mediated cAMP production, CHO-ADORA3 cells); conditions: for pIC50: target A3AR, cAMP level of ADORA3-CHO cells elicited by NECA
# T1 construct: host or cells: CHO-K1 (CHO-ADORA3)
# T1 sequence (P0DMS8 1-318): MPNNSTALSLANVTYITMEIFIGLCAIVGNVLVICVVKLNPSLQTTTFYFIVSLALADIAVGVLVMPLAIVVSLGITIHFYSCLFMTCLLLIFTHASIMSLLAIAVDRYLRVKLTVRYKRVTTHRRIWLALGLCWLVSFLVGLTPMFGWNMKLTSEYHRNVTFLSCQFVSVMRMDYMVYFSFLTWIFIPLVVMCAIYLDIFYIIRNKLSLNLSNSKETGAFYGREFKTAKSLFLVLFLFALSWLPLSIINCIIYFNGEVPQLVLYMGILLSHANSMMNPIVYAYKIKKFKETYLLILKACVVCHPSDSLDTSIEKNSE
# Method: (§1) Pharmaron (Beijing) was commissioned to perform in vitro inhibition screening of hGR and A3AR.
# The four test compounds were evaluated as A3AR antagonists by A3AR-mediated cAMP production in cell-based functional assays. CHO-ADORA3 cells in which the A3AR was transfected in engineered CHO-K1 cells (PerkinElmer) to express the human A3AR were employed. The cells were collected by centrifugation and resuspended with Hank’s Buffered Saline Solution, 5 mM 4-(2-hydroxyethyl)-1-piperazineethanesulfonic acid (HEPES), 0.1% bovine serum albumin (BSA) stabilizer (pH 7.4) and 10 μM Rolipram. 2000 cells per well were added to 384 wells solid white plate. Test compounds were prepared with DMSO in 3-fold serial dilutions of 11 concentrations and dispensed to assay plates. Each compound was tested within the range of 1.69 × 10^-3–100 μM. The serial dilutions of adenosine-5′-N-ethyluronamide (NECA, 10 nl/well) was transferred to 384 wells and incubated at room temperature for 30 min. A LANCE cAMP 384 kit (Perkin Elmer, USA) was used to measure the intracellular cAMP levels. Forskolin (1 μM) was used to stimulate adenylyl cyclase activity and induce cAMP production. NECA and VUF-5574 were used as reference compounds.
# [1] = target: T2, human glucocorticoid receptor (hGR) (Homo sapiens, UniProt P04150); test: hGR reporter gene assay (GR-GAL4 chimeric receptor, antagonist mode); assay type: cell-based
# T2 construct: expressed in transfected cells; host or cells: HEK293T
# T2 sequence (P04150 524-758 limits assumed): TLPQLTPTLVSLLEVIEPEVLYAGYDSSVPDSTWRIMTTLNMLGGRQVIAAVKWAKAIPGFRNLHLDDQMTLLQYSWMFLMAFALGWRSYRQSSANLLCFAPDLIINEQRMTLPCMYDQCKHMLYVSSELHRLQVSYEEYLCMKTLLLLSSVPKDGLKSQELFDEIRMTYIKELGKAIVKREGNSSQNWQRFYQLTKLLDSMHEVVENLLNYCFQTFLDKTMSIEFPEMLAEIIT
# Excerpt: as §1
# The coding sequence of hGR ligand-binding domain was inserted into the pBIND expression vector (Promega, E1581) to express GR-GAL4 binding domain chimeric receptors. The expression vector and reporter vector were co-transfected into HEK293T host cells. The principle of the assay is that once the agonist binds to the corresponding GR-GAL4 chimeric receptor, the reporter gene is activated after binding of the chimeric receptor to the GAL4 binding sites. When the antagonist and agonist are in the system, the antagonist will compete with the agonist for binding to the GR-GAL4 chimeric receptor, inhibiting the reporter gene. Cyproterone was used as a positive control. All six test compounds were prepared in dimethyl sulfoxide (DMSO) at 10 mM and further diluted. Each compound was added to wells at final concentrations of 100 μM, 50 μM, 16.67 μM, 5.56 μM, 1.85 μM, 0.62 μM, 0.21 μM, 0.07 μM, 0.02 μM, 0.008 μM and 0.003 μM.
# [2] = target GR, GR-GAL4 reporter gene assay in HEK293T cells, read-out: IC50 (half-maximal inhibitory concentration)
# [3] = read-out: IC50 (half-maximal inhibitory concentration)
SMILES,"pIC50 [1, 2]",pIC50 (human A3AR; [3]),other results
CC1(O)CCC2C3CCC4=CC(=O)CCC4C3CCC21C (centres unmarked) [A3-4],–,–,pIC50 (human A3AR; IC50 (half-maximal inhibitory concentration)): < 5.00
C#CC1(O)CCC2C3CCc4cc(Oc5ccc([N+](=O)[O-])cc5)ccc4C3CCC21C (centres unmarked) [GR-2],5.53,–,–
Cc1nnc(SCC(=O)Nc2ccc(S(N)(=O)=O)cc2)c2nn(-c3ccccc3)c(C)c12 [GR-4],4.63,–,–
NC(=O)c1nnc2cc(-c3ccccc3)nn2c1-c1ccccc1Cl [A3-2],–,< 5.00,–
O=S(=O)(Nc1cccc(-c2nc3ccccc3s2)c1)c1ccc(F)c(Cl)c1 [GR-5],4.74,–,–
O/N=C/c1cn(-c2ccccc2)nc1-c1ccccc1 [A3-3],–,5.21,"LE value (human A3AR; ligand efficiency based on IC50, 20 heavy atoms): 0.36 kcal/mol"
CC(=O)Nc1ccc(S(=O)(=O)Nc2cc(C(F)(F)F)cc(C(F)(F)F)c2)cc1 [A3-1],–,< 5.00,–
CC(=O)C1(O)CCC2C3CCC4(C)CC(=O)CCC4(C)C3C(=O)CC21C (centres unmarked) [GR-3],4.57,–,–
CC(=O)OC1CCC2(C)C(=CCC3C2CCC2(C)C(OC(=O)c4ccccc4)CCC32)C1 (centres unmarked) [GR-1],–,–,pIC50 [1]: 4.55
CC(=O)OCC(=O)C1(OC(C)=O)CCC2C3CCC4=CC(=O)C=CC4(C)C3C(=O)CC21C (centres unmarked) [GR-6],5.07,–,–
